Our source for the melting point values is patent publication US11540516B2, “M-diamide compound and preparation method therefor and use thereof” (priority 2018, dated 2023).

A word on the melting point: it is the temperature, or range, at which the solid turns liquid.

As to `COC(c1cc(Br)c(NC(=O)c2cccc(N(CC3CC3)C(=O)c3ccc(C#N)cc3)c2F)c(C(F)(F)F)c1)(C(F)(F)F)C(F)(F)F` [Compound 24, N-(2-bromo-4-(1,1,1,3,3,3-hexafluoro-2-methoxypropan-2-yl)-6-(trifluoromethyl)phenyl)-3-(4-cyano-N-(cyclopropylmethyl)benzamido)-2-fluorobenzamide], the melting point was in the range of 152.3 to 153.5 °C.

In turn, `N#Cc1ccc(C(=O)N(c2cccc(C(=O)Nc3c(Br)cc(C(F)(C(F)(F)F)C(F)(F)F)cc3C(F)(F)F)c2F)C(C2CC2)C2CC2)cc1` [Compound 32, N-(2-bromo-4-(perfluoropropan-2-yl)-6-(trifluoromethyl)phenyl)-3-(4-cyano-N-(dicyclopropylmethyl)benzamido)-2-fluorobenzamide] showed a melting point of 73.5 to 76.1 °C.

For `COC(c1cc(Br)c(NC(=O)c2cccc(N(CC3CC3)C(=O)c3ccc(Cl)cc3)c2F)c(C(F)(F)F)c1)(C(F)(F)F)C(F)(F)F` [Compound 43, N-(2-bromo-4-(1,1,1,3,3,3-hexafluoro-2-methoxypropan-2-yl)-6-(trifluoromethyl)phenyl)-3-(4-chloro-N-(cyclopropylmethyl)benzamido)-2-fluorobenzamide], the melting point is 139.3 to 140.2 °C.

In the case of `CC(C1CC1)N(C(=O)c1ccc(S(C)(=O)=O)cc1)c1cccc(C(=O)Nc2c(Br)cc(C(F)(C(F)(F)F)C(F)(F)F)cc2C(F)(F)F)c1F` (stereo not shown) [Compound 77, N-(2-bromo-4-(perfluoropropan-2-yl)-6-(trifluoromethyl)phenyl)-3-(N-(1-cyclopropylethyl)-4-(methylsulfonyl)benzamido)-2-fluorobenzamide], the melting point lay within 76 to 78.8 °C.
